According to patent publication US12600997B2, “Fermentative production of sialylated saccharides” (priority 2018, dated 2026):

Tests used:
[1] = tested on: SiaT18 (α-2,6-sialyltransferase); assay: In vitro sialyltransferase activity assay with acceptor substrates, product detected by thin layer chromatography; assay type: biochemical, Photobacterium leiognathi JT-SHIZ-119; set-up: key to Formation of sialylated reaction product, SiaT18: +: A sialylated reaction product was detectable.; −: A sialylated reaction product was not detectable; settings: TLC; for Formation of sialylated reaction product, SiaT18: E. coli protein extract, 10 mM CMP-Neu5Ac, 5 to 20 mM acceptor substrate, 16 hours; for Sialylation of acceptor substrate by SiaT18: in vitro assay, summary of Table 3
Method: (§1) The E. coli strains harboring the plasmids for siaT9 (α-2,3-sialyltransferase) and siaT18 (α-2,6-sialyltransferase) expression were grown at 30° C. in 100 ml shake flasks filled with 20 ml of 2YT medium supplemented with ampicillin 100 μg ml^−1. When the cultures reached an OD600 of 0.1 to 0.3, gene expression was induced by addition of 0.3 mM IPTG and the incubation was continued for 12 to 16 hours. Cells were harvested by centrifugation and mechanically disrupted in a defined volume of 50 mM Tris-HCl pH7.5 using glass beads. The protein extract was kept on ice until the assay started. The in vitro assay was carried out in a total volume of 25 μl including 50 mM Tris-HCl PH7.5, 5 mM MgCl2, 10 mM CMP-Neu5Ac and 5 to 20 mM of the appropriate acceptor substrates. The assay started with the addition of 3 μl protein extract and continued for 16 hours. Formation of sialylated oligosaccharides resulting from the activity of the sialyltransferases was determined by thin layer chromatography.
(§2) Therefore, samples were applied on Silica Gel 60 F254 (Merck KGaA, Darmstadt, Germany)-plates. A mixture of butanol:acetone:acetic acid:H2O (35/35/7/23 (v/v/v/v)) was used as mobile phase. For detection of the separated substances, the TLC plate was soaked with thymol reagent (0.5 g thymol solved in 95 ml ethanol, 5 ml sulfuric acid added) and heated. Sialylated reaction products run slower than their acceptor substrates.
(§3) Table 3: In vitro analyses determining sialyltransferase activities of two exemplary sialyltransferases depending on the supplied acceptor substrate. The formation of sialylated saccharides was determined by thin layer chromatography. (+) A sialylated reaction product was detectable. (−) A sialylated reaction product was not detectable.

[2] = tested on: SiaT9 (α-2,3-sialyltransferase); assay: as above; assay type: biochemical, Vibrio sp. JT-FAJ-16; set-up: key to Formation of sialylated reaction product, SiaT9: +: A sialylated reaction product was detectable.; −: A sialylated reaction product was not detectable; settings: TLC; for Formation of sialylated reaction product, SiaT9: E. coli protein extract, 10 mM CMP-Neu5Ac, 5 to 20 mM acceptor substrate, 16 hours; for Sialylation of acceptor substrate by SiaT9: in vitro assay, summary of Table 3
Method: as §1, §2, §3

| SMILES | Formation of sialylated reaction product, SiaT18 [1] | Sialylation of acceptor substrate by SiaT18 [1] | Formation of sialylated reaction product, SiaT9 [2] | Sialylation of acceptor substrate by SiaT9 [2] |
| --- | --- | --- | --- | --- |
| OC[C@H]1O[C@@](CO)(O[C@H]2O[C@H](CO)[C@@H](O)[C@H](O)[C@H]2O)[C@@H](O)[C@@H]1O [Sucrose] | − | No sialylated oligosaccharide was detectable | − | No sialylated oligosaccharide was detectable |
| O=C[C@H](O)[C@@H](O)[C@@H](O)[C@H](O)CO [Galactose] | + | capable to sialylate | + | capable to sialylate |
| CC(=O)N[C@H]1[C@H](O[C@H]2[C@@H](O)[C@@H](CO)O[C@@H](O[C@H]3[C@H](O)[C@@H](O)C(O)O[C@@H]3CO)[C@@H]2O)O[C@H](CO)[C@@H](O)[C@@H]1O[C@@H]1O[C@H](CO)[C@H](O)[C@H](O)[C@H]1O (stereo partly drawn) [Lacto-N-tetraose] | + |  | + |  |
| OC[C@H]1O[C@@H](O[C@H]2[C@H](O)[C@@H](O)C(O)O[C@@H]2CO)[C@H](O)[C@@H](O)[C@H]1O (stereo partly drawn) [Lactose] | + |  | + |  |
